Laboratory results as given in paper PMC12040169 (PLOS Biology, 2025).

assay: in vitro; details: human, hela cells, % viability

| Structure (SMILES) | viability at 28.5 h, 10 µM [%] |
| --- | --- |
| CC1(C#N)CCCN(C(=O)NC2CCN(Cc3cccc(O)c3)CC2)C1 (stereo not shown) [CBK306787] | 88.2 |
| Cc1noc(C)c1CCC(=O)NC(Cc1ccncc1)C1CC(O)C1 (stereo not shown) [CBK306790] | 91 |
| Cc1cnn(CCNc2cc(C(C)C)nc3ccnn23)c1 [CBK306792] | 91.5 |
| CC(C)CN(Cc1cccs1)C(=O)c1cc2n(n1)CCCN(C)C2 [CBK306793] | 102 |
| CCCNC(=O)c1ccc(C)c(NC(=O)NC2CCOC2)c1 (stereo not shown) [CBK306794] | 95.8 |
| CCCc1nc(NC(c2cccc(C)n2)C2CC2)c2cnn(C)c2n1 (stereo not shown) [CBK306795] | 88 |
| CCN(C(=O)Cn1c(C)cc(=O)c2ccccc21)C1CCOC(C)(C)C1 (stereo not shown) [CBK306797] | 93.6 |
| CSCCCNC(=O)c1ccc2c(c1)nc(N1CC[C@H](O)C1)n2C [CBK306807] | 107 |
| Cn1ncc(N2CCC(CNC(=O)COc3ccccc3)C2)cc1=O (stereo not shown) [CBK306810] | 92.3 |
| Cc1cc(=O)c2ccccc2n1CC(=O)N1CCOC2(CCCC2)C1 [CBK306811] | 93.5 |
| CCc1nccn1CCC(=O)NC1CCN(Cc2ccncc2)CC1 [CBK306813] | 107 |
| Cn1cccc1CCC(=O)NC1CCN(Cc2ccccc2Cl)CC1 [CBK306814] | 88.4 |
| Cc1cc(C(=O)NC(Cn2ccnc2)c2ccccc2)cc(=O)[nH]1 (stereo not shown) [CBK306818] | 94 |
| O=C(c1cc(CO)ccn1)N(Cc1ccccn1)CC1CCCO1 (stereo not shown) [CBK306820] | 97 |
| Cn1c(=O)oc2ccc(C(=O)N3CCn4nc(CO)cc4C3)cc21 [CBK306821] | 85.6 |
| Nc1nc(NCCOc2ccccc2Cl)cc(C2CC(N)C2)n1 (stereo not shown) [CBK306825] | 75.2 |
| Cc1nn(C)c2nc(NCc3ccc(C(=O)N4CCCCC4)cc3)sc12 [CBK306826] | 86.6 |
| O=C(O)CC1COCCN1Cc1ccc(Cn2cccn2)cc1 (stereo not shown) [CBK306827] | 89.1 |
| CCn1c(C)nnc1SCCNc1cc(C(C)C)nc2ccnn12 [CBK306829] | 81.4 |
| Cn1nc(NC(=O)CN2CCOC2=O)c2c(N3CCOCC3)cccc21 [CBK306830] | 102 |
| COc1ccc2cc(C(=O)N(CCO)Cc3ccc(C)s3)n(C)c2c1 [CBK306831] | 116 |
| CCCN1CC(NS(=O)(=O)c2cc(-n3cccn3)ccc2C)CC1=O (stereo not shown) [CBK306835] | 98.3 |
| Cc1ccc(CNC(=O)c2ccc3c(c2)nc(N2CC[C@H](O)C2)n3C)s1 [CBK306837] | 90.9 |

| Structure (SMILES) | viability at 28.5 h, 10 µM [%] |
| --- | --- |
| CNC(=O)c1cn2cc(-c3cccs3)n(CC3CC3)c(=O)c2n1 [CBK306838] | 84 |
| COc1cc(NC(=O)CN2CCc3c(c(CO)nn3C)C2)cc(OC)c1 [CBK306841] | 114 |
| COc1ccccc1CN(Cc1cccnc1)C(=O)CNC(C)=O [CBK306843] | 96.2 |
| CCOc1ccc(NC(=O)N(Cc2ccccn2)CC2CCCO2)cc1 (stereo not shown) [CBK306847] | 83.7 |
| COCCN(C)c1ccc(C(=O)N2CCC(N3CCOCC3)CC2)cn1 [CBK306851] | 111 |
| Cn1nc(C(=O)N2Cc3cnn(Cc4ccc(F)cc4)c3C2)ccc1=O [CBK306855] | 83 |
| COCCn1c(CO)nnc1[C@H]1C[C@@H](NC(=O)c2ccc(F)cc2C)C1 [CBK306856] | 94.7 |
| Cc1[nH]c(=O)c(C#N)cc1C(=O)N(C)Cc1cc(-c2ccncc2)no1 [CBK306859] | 113 |
| O=C(NC1CCC1)c1cn2cc(-c3cccs3)n(CC3CC3)c(=O)c2n1 [CBK306863] | 82.9 |
| COc1cccc(C(=O)NCCC(=O)N2CCCC(c3ncc[nH]3)C2)c1 (stereo not shown) [CBK306864] | 82.5 |
| CC(=O)Nc1cccc(C(=O)N(Cc2ccccn2)CC2CCCO2)c1 (stereo not shown) [CBK306867] | 90.5 |
| Cc1cc(=O)c2ccccc2n1CC(=O)N1CCC2(CCOCC2)CC1 [CBK306869] | 94.7 |
| COc1ncc(C(=O)NCc2cccnc2N(C)C2CCCCC2)cn1 [CBK306870] | 91.8 |
| CCCC(C)c1cn(CCc2cc(O)nc(C)n2)nn1 (stereo not shown) [CBK306871] | 93.8 |
| Cn1c(N2CC[C@H](O)C2)nc2cc(C(=O)NC3CCNCC3)ccc21 [CBK306873] | 98.1 |
| Cc1cc(O)n2nc(CC(=O)NCCCn3ccnc3C(C)C)nc2n1 [CBK306876] | 91.5 |
| Cc1c(C(=O)NCCN2CCCC(C(N)=O)C2)[nH]c2c(F)cccc12 (stereo not shown) [CBK306877] | 81.7 |
| CCCCSc1nc(N)cc(N2CCC(C(=O)NCC)C2)n1 (stereo not shown) [CBK306880] | 88.2 |
| O=C(NCCc1cccs1)Nc1cccc(CN2CCCCC2)c1 [CBK306882] | 96.1 |
| COc1c(C)cc(-c2ncnc(C)c2C)cc1C [CBK306884] | 67.6 |
| Cc1nc(C)c(C(=O)NCc2cccnc2N(C)C2CCCCC2)s1 [CBK306885] | 95 |
| CN1CC2(CCCN(Cc3nnc(-c4cccnc4)o3)C2)OC1=O (stereo not shown) [CBK306888] | 110 |
| Cc1cc(-c2cn3cc(C(=O)N4CCCCC4)nc3c(=O)n2C)c(C)o1 [CBK306890] | 86.6 |

| Structure (SMILES) | viability at 28.5 h, 10 µM [%] |
| --- | --- |
| c1cnc(NCc2cc3n(n2)CCN(CC2CCCCO2)C3)cn1 (stereo not shown) [CBK306891] | 96.4 |
| CCc1nc(-c2ccc(N(C)C)nc2)n(C)n1 [CBK306897] | 90.6 |
| CCOc1ccc(-c2ccnc(NCCNC(C)=O)n2)cc1C(=O)O [CBK306898] | 85.1 |
| CN(CCO)c1ccc(C(=O)N2CCC(N3CCOCC3)CC2)cn1 [CBK306899] | 97 |
| CCn1cc(CN(CCOC)C(=O)c2cc3c(Cl)cccc3[nH]2)cn1 [CBK306903] | 91.5 |
| COc1ccc2[nH]c(CN3CCCC(c4nc(C)n[nH]4)C3)c(C)c2c1 (stereo not shown) [CBK306904] | 101 |
| Cn1cc(CCCNC(=O)c2cccc(CN3CCCCCC3)c2)cn1 [CBK306906] | 93.7 |
| O=c1cc(N2CCCCC2)cnn1CCCn1cccn1 [CBK306907] | 90.1 |
| Nc1nc(C2CC(N)C2)cc(N2CCC(Oc3ccccc3F)CC2)n1 (stereo not shown) [CBK306909] | 85.5 |
| CCc1nc(N)nc(N2CCCC3(CN(C)C(=O)O3)C2)c1C (stereo not shown) [CBK306914] | 86.9 |
| Cc1cnc2c(Cl)c(C(=O)NCC3(CN4CCOCC4)CC3)nn2c1 [CBK306918] | 98.8 |
| COc1ccc(CN2CCOC(C(=O)O)C2)cc1Cn1cncn1 (stereo not shown) [CBK306919] | 120 |
| Cc1cc(C)n(CC2(CNC(=O)C(c3ccccc3F)N(C)C)CC2)n1 (stereo not shown) [CBK306920] | 97.2 |
| CC(Cc1ccsc1)NS(=O)(=O)c1cccc(C(=O)N2CCCC2)c1 (stereo not shown) [CBK306923] | 85.8 |
| COc1ccnc(N2CCN(Cc3cncn3C3CCCCC3)CC2)n1 [CBK306925] | 98.1 |
| COc1ccccc1CCC(=O)NCc1cnc(SC)n1C [CBK306926] | 85.9 |
| O=C(NCC(CO)Cc1ccsc1)N1CCN(c2ccncc2)CC1 (stereo not shown) [CBK306929] | 96.7 |
| Cn1nccc1C(O)c1cc2n(n1)CCCN(C(=O)Cc1cccs1)C2 (stereo not shown) [CBK306930] | 104 |
| Cc1nc(CCN2CCN(c3ccc4nccn4n3)CC2)cs1 [CBK306932] | 95.6 |
| CCc1ocnc1C(=O)NC1CCN(c2ncccc2C#N)CC1 [CBK306935] | 93 |
| Cn1ncc(N2CCN(C(=O)CCCOc3ccccc3)CC2)cc1=O [CBK306937] | 84.2 |
| CSc1nnc(CC2CCN(C(=O)c3ccc(C)cc3F)CC2)n1C [CBK306939] | 105 |
| CCCCSc1nc(N)cc(N2CCN3C(=O)CN(C)C(=O)C3C2)n1 (stereo not shown) [CBK306940] | 82.4 |

| Structure (SMILES) | viability at 28.5 h, 10 µM [%] |
| --- | --- |
| CCCc1nnc2sc(C3CCC(=O)N(C(C)C)C3)nn12 (stereo not shown) [CBK306942] | 108 |
| Cc1cccc(C(C)NC(=O)C2(Cn3ccnc3)CC2)n1 (stereo not shown) [CBK306944] | 86.4 |
| Cc1cccc(=O)n1CCCn1cc(C2CCCNC2)nn1 (stereo not shown) [CBK306946] | 91 |
| CC(Cn1cccn1)NC(=O)N1CCN(Cc2ccc(F)cc2)CC1 (stereo not shown) [CBK306948] | 88.9 |
| CCn1cc(CN(C)Cc2csc(C)n2)c2cc(C(=O)O)ncc21 [CBK306950] | 116 |
| CCn1ncc(CN2CCCC(CCC(=O)N3CCN(C)CC3)C2)c1C (stereo not shown) [CBK306951] | 80.4 |
| Cc1nc(CCCn2cnc3ncccc3c2=O)sc1C [CBK306953] | 106 |
| CC(Cc1cnccn1)NC(=O)Nc1cc(N2CCOCC2)ccc1Cl (stereo not shown) [CBK306954] | 111 |
| COC(CNC(=O)Cn1nnnc1CN1CCC(C)CC1)c1cccs1 (stereo not shown) [CBK306958] | 109 |
| COc1ccccc1CN(Cc1cccnc1)C(=O)CCN1CCCO1 [CBK306959] | 98.1 |
| Cc1cc(=O)c2ccccc2n1CC(=O)N(C)CC1CCCCO1 (stereo not shown) [CBK306960] | 94.4 |
| CN(Cc1cnn(C)c1)c1nccc(N2CCN[C@H]3CS(=O)(=O)C[C@H]32)n1 [CBK306964] | 100 |
| CN(CC1CCCCO1)C(=O)c1ccc(-c2ccccc2C(N)=O)cc1 (stereo not shown) [CBK306967] | 92.6 |
| CC(=O)N1CCc2nc(C)nc(N(C)Cc3cnn(C(C)C)c3)c2CC1 [CBK306968] | 83.1 |
| Cc1nc(O)cc(C2CCCN(C(=O)c3scc4c3CCCC4)C2)n1 (stereo not shown) [CBK306969] | 88.5 |
| O=C(NC1CCN(Cc2cc(F)cc(F)c2)CC1)c1cn2ccsc2n1 [CBK306970] | 80 |
| COc1ccccc1CN(Cc1cccnc1)C(=O)c1cnc(C)cn1 [CBK306972] | 95.1 |
| CCCCSc1nc(N)cc(N2CCC(N3CCOC3=O)CC2)n1 [CBK306974] | 82.1 |
| CC(C)c1cc(C(=O)NC2CCN(c3ncccc3C#N)CC2)n(C)n1 [CBK306975] | 87.1 |
| COc1ccc(C(Nc2ccnc(OC)c2C#N)[C@H]2C[C@@H](O)C2)cn1 (stereo partly shown) [CBK306980] | 84.6 |
| COCCNS(=O)(=O)c1cccc2c1CN(C(=O)CC1CCCC1)CC2 [CBK306982] | 101 |
| COCCN(Cc1ccncc1)C(=O)c1cc(C(C)C)n2ncnc2n1 [CBK306983] | 97.4 |
